Molecular target: human h-PGDS (Homo sapiens, UniProt O60760)
Experiment: Enzyme Immunoassay (EIA) method (Assay 2)
Assay type: biochemical
Conditions: assigned
Source text: The compounds of the present invention can be tested for enzymatic inhibiting activity against PGD2 Synthase according to either one of the following assays.
Assay 2: Enzyme Immunoassay (EIA) Method
• a. Preparation of 0.1M K2HPO4/KH2PO4 buffer (pH ˜7.4) • Prepare 0.1 M KH2PO4 from 1M KH2PO4 (Sigma, Cat# P-8709) • Prepare 0.1 M K2HPO4 from powder of K2HPO4 (Fisher, BP363-500) • Mix 0.1 M K2HPO4 with 0.1 M KH2PO4 to adjust pH to 7.4. • b. Preparation of 0.5% γ-globulin • Add 0.1 g of γ-globulin (Sigma, Cat# G-5009) to 20 mL 0.1 M K2HPO4/KH2PO4 buffer (pH ˜7.4) and make 1-ml/vial aliquots and store in −80° C. • c. Preparation of 100 mM GSH • Add 307 mg of GSH (Sigma, Cat# G-6529) to 10 mL 0.1 M K2HPO4/KH2PO4 buffer (pH ˜7.4) and store at −80° C. • d. Preparation of Reaction buffer: • 198 mL of 0.1M K2HPO4/KH2PO4 buffer (pH ˜7.4) • 2 mM GSH—Prepared from 100 mM GSH • 0.4 g Glycerol • 2 mL of 0.5% γ-globulin • Add 0.4 g of glycerol and 2 mL of 0.5% γ-globulin to 198 mL of 0.1 M K2HPO4/KH2PO4 • buffer (pH7.4). • Add 0.4 mL of 100 mM GSH to 19.6 ml reaction buffer before the assay (enough for two 96-well plates). • e. Preparation of FeCl2/citric acid stopping solution: (8 mg/mL FeCl2, 0.1 M citric acid) • Add 40 mg fresh FeCl2 (IGN, Cat# 158046) to 5 ml 0.1 M citric acid (Sigma, Cat# C0759). • f. Preparation of MOX reagent: • 10% EtOH-Add 1 mL of EtOH to 9 mL of ultra pure H2O • Dissolve 0.1 g of methoxylamine (Cayman, Cat# 400036/) in 10% EtOH (10 mL). • Add 0.82 g of sodium acetate (Cayman, Cat#400037) to MOX solution and dissolve. II. Materials and Method • Dimethylsulfoxide (DMSO; Sigma; Cat# D2650) • Prostaglandin D2-MOX express EIA kit (Caymen Chemical, Catalog No. 500151)
Before the assay, cool down 10 mL of acetone in polypropylene tubes and empty 96 well plates in ice. All the procedures except compound dilution are performed on ice.
• 1. Dilute Compound in DMSO
• 2. Dilute 2 μL of each above concentration of compound to 38 μL of reaction buffer in 96-well plates and mix. IV. Enzyme and Substrate Solution Preparation • 1. Preparation of 0.39 ng/μL enzyme solution (0.35 ng/μL at final after compound addition). • Mix 4 μL of 4 mg/mL human h-PGDS with 396 μL of reaction buffer (to give enzyme concentration 40 μg/mL). Add 46.8 μL of 40 μg/mL h-PGDS to 4.753 mL of reaction buffer to give a total volume of 4.8 mL • 2. Preparation of Substrate Solution (PGH2): Add 0.375 mL of 0.1 mg/mL of PGH2 to 1.625 mL acetone. V. Enzyme Reaction: • 1. Add 60 μL of enzyme solution to compound well and positive control (without compound) in U-bottom polypropylene plate on ice. • 2. Add 60 μL of reaction buffer and 6.6 μL of 5% DMSO in reaction buffer into negative control wells in the plate. • 3. Add 6.6 μL of diluted compound in reaction buffer to the compound wells and mix. • 4. Add 6.6 μL of 5% DMSO in reaction buffer to the positive control well. • 5. Incubate the plate in ice for at least 30 min. • 6. Add 20 μL of substrate (PGH2) solution to compound, negative and positive control wells in the U-bottom 96 well plate on ice. • 7. Dry the plate in cold room for about 25-28 min. • 8. Pipette 45 μL of enzyme solution (above) into 96-wells with dried PGH2 and mix 3 times. Incubate on the ice for 1 min. • 9. Add 45 μL of FeCl2 solution into each wells and mix. • 10. Add 90 μL of MOX solution and mix. • 11. Incubate for 30 min at 60° C. • 12. Dilute the samples 2500× with EIA buffer. VI. EIA assay • Perform the assay according to the procedure in EIA kit provided by Cayman. […]

Chain of human h-PGDS (O60760 whole entry): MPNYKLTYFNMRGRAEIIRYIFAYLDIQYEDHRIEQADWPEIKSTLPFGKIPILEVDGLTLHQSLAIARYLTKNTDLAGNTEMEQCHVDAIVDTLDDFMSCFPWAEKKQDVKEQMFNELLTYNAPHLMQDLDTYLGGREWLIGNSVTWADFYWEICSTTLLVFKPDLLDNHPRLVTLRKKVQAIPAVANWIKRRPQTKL

Row | SMILES | IC50 [µM]
1 | O=C(NCc1ccccc1)c1cnc(-c2ccccc2)nc1 [Example 1, 2-Phenyl-pyrimidine-5-carboxylic acid benzylamide] | 0.01
2 | NS(=O)(=O)c1ccc(NC(=O)c2cnc(-c3ccccc3)nc2)cc1 [Example 30, 2-Phenyl-pyrimidine-5-carboxylic acid (4-sulfamoyl-phenyl)-amide] | 0.005
3 | CN1CCC(NC(=O)c2cnc(-c3ccccc3)nc2)CC1 [Example 38, 2-Phenyl-pyrimidine-5-carboxylic acid (1-methyl-piperidin-4-yl)-amide] | 0.096
4 | CNS(=O)(=O)c1cccc(CNC(=O)c2cnc(-c3cc(F)cc(F)c3)nc2)c1 [Example 40, 2-(3,5-Difluoro-phenyl)-pyrimidine-5-carboxylic acid 3-methylsulfamoyl-benzylamide] | 0.049
5 | CCNS(=O)(=O)c1cccc(CNC(=O)c2cnc(-c3cccc(F)c3)nc2)c1 [Example 45, 2-(3-Fluoro-phenyl)-pyrimidine-5-carboxylic acid 3-ethylsulfamoyl-benzylamide] | 0.058
6 | O=C(NCc1cccc(S(=O)(=O)NC2CC2)c1)c1cnc(-c2cccc(F)c2)nc1 [Example 48, 2-(3-Fluoro-phenyl)-pyrimidine-5-carboxylic acid 3-cyclopropylsulfamoyl-benzylamide] | 0.132
7 | O=C(NCc1cccc(S(=O)(=O)NCCCO)c1)c1cnc(-c2cccc(F)c2)nc1 [Example 49, 2-(3-Fluoro-phenyl)-pyrimidine-5-carboxylic acid 3-(3-hydroxy-propylsulfamoyl)-benzylamide] | 0.022
8 | COCCCNS(=O)(=O)c1cccc(CNC(=O)c2cnc(-c3cccc(F)c3)nc2)c1 [Example 51, 2-(3-Fluoro-phenyl)-pyrimidine-5-carboxylic acid 3-(3-methoxy-propylsulfamoyl)-benzylamide] | 0.037
9 | CC(C)(CO)NS(=O)(=O)c1cccc(CNC(=O)c2cnc(-c3cccc(F)c3)nc2)c1 [Example 54, 2-(3-Fluoro-phenyl)-pyrimidine-5-carboxylic acid 3-(2-hydroxy-1,1-dimethyl-ethylsulfamoyl)-benzylamide] | 0.06
10 | NS(=O)(=O)c1cccc(CNC(=O)c2cnc(-c3cccc(F)c3)nc2)c1 [Example 55, 2-(3-Fluoro-phenyl)-pyrimidine-5-carboxylic acid 3-sulfamoyl-benzylamide] | 0.031
11 | O=C(NCc1cccc(S(=O)(=O)NCCN2CCOCC2)c1)c1cnc(-c2cccc(F)c2)nc1 [Example 56] | 0.037
12 | CN(C)CCNS(=O)(=O)c1cccc(CNC(=O)c2cnc(-c3cccc(F)c3)nc2)c1 [Example 63, 2-(3-Fluoro-phenyl)-pyrimidine-5-carboxylic acid 3-(2-dimethylamino-ethylsulfamoyl)-benzylamide] | 0.045
13 | CN(C)CC(C)(C)CNS(=O)(=O)c1cccc(CNC(=O)c2cnc(-c3cccc(F)c3)nc2)c1 [Example 65, 2-(3-Fluoro-phenyl)-pyrimidine-5-carboxylic acid 3-(3-dimethylamino-2,2-dimethyl-propylsulfamoyl)-benzylamide] | 0.035
14 | Cc1nc(-c2cccc(F)c2)ncc1C(=O)NCc1cccc(CNS(C)(=O)=O)c1 [Example 68, 2-(3-Fluoro-phenyl)-4-methyl-pyrimidine-5-carboxylic acid 3-(methanesulfonylamino-methyl)-benzylamide] | 0.0485
15 | Cc1nc(-c2cccc(F)c2)ncc1C(=O)NCc1cccc(CS(=O)(=O)NC(C)C)c1 [Example 71, 2-(3-Fluoro-phenyl)-4-methyl-pyrimidine-5-carboxylic acid 3-(isopropylsulfamoyl-methyl)-benzylamide] | 0.034
16 | CNS(=O)(=O)c1cccc(CNC(=O)c2cnc(-c3cccc(F)c3)nc2C)c1 [Example 85, 2-(3-Fluoro-phenyl)-4-methyl-pyrimidine-5-carboxylic acid 3-methylsulfamoyl-benzylamide] | 0.106
17 | CNS(=O)(=O)c1cccc(CNC(=O)c2cnc(-c3cccc(F)c3)nc2)c1 [Example 97, 2-(3-Fluoro-phenyl)-pyrimidine-5-carboxylic acid 3-methylsulfamoyl-benzylamide] | 0.0095
18 | NS(=O)(=O)CCNC(=O)c1cnc(-c2ccccc2)nc1 [Example 108, 2-Pheny-pyrimidine-5-carboxylic acid (2-sulfamoyl-ethyl)-amide] | 0.055
19 | CN(C)S(=O)(=O)CCNC(=O)c1cnc(-c2ccccc2)nc1 [Example 109, 2-Pheny-pyrimidine-5-carboxylic acid (2-dimethylsulfamoyl-ethyl)-amide] | 0.082
20 | O=C(Nc1nc(-c2ccccc2)ns1)c1cnc(-c2ccccc2)nc1 [Example 110, 2-Phenyl-pyrimidine-5-carboxylic acid (3-phenyl-[1,2,4]thiadiazol-5-yl)-amide] | 0.03
21 | NS(=O)(=O)c1ccc(CNC(=O)c2cnc(-n3cccn3)nc2)cc1 [Example 117, 2-Pyrazol-1-yl-pyrimidine-5-carboxylic acid 4-sulfamoyl-benzylamide] | 0.266
22 | Cc1nc(-c2ncc(C(=O)NC3CCOCC3)cn2)cs1 [Example 118, 2-(2-Methyl-thiazol-4-yl)-pyrimidine-5-carboxylic acid (tetrahydro-pyran-4-yl)-amide] | 0.082

Reference: patent publication US8202863B2 (Aventis Pharmaceuticals Inc., priority 2005, dated 2012)
